From patent US12202805B2, “Process for preparing (5S)-{[2-(4-carboxyphenyl)ethyl] |2-(2-{|3-chloro-4'-(trifluoromethyl)biphenyl-4-yl]methoxy}phenyl)ethyl]aminol-5,6,7,8-tetrahydroquinoline-2-carboxylic acid and its crystalline forms for use as pharmaceutically active compound” (Bayer Aktiengesellschaft, priority 2021, dated 2025)

Key:
[1] = Micronization in spiral jet mill: solid form (XRPD) and particle size distribution; type: physicochemical; conditions: for PSD X10 / PSD X50 / PSD X90: dry measurement 4 bar
Text: For inhalative drug products it is important to guarantee a homogeneous drug substance with defined particle size <5 μm to secure delivery to the deep lung compartments. This technical requirement can be afforded by micronization of the drug substance particles.
Generally no amorphization even partial nor form conversion should happen during the necessary micronization step.
The corresponding batches (examples 8a-8 d) were micronized using a 50 mm spiral jet mill and pressurized nitrogen with the following parameters (see table 16b).
The corresponding batches were micronized using a 100 mm spiral jet mill and pressurized nitrogen with the following parameters (see table 16c).
All measurements cited in the above tables were obtained by laser diffraction with dry dispersion using compressed air. Measuring in aqueous suspension with surfactants may lead to smaller particle sizes (×90 up to 1 μm smaller).

[2] = Storage stability of pseudopolymorphic forms (XRPD); type: physicochemical; conditions: for Result (form after storage): monohydrate II
[3] = Protein binding via Transil assay, minipig plasma; type: in vitro ADME; conditions: read-out: plasma fu (fraction unbound)
Description: (§1) Protein Binding of Comparative Example 11 and Comparative Example 1 was Analyzed Via Transil Assay, Described Below.
(§2) The distribution of a test substance between Transil® (phosphatidylcholine lipid bilayers immobilized on silica beads) and plasma is a characteristic feature of any pharmaceutical compound and is dependent on its extent of binding to plasma proteins. By comparing the distribution between Transil® and buffer with the distribution between Transil® and plasma of any species of interest, the unbound fraction in the plasma of the respective animal species can be calculated in vitro. The respective plasma and buffer concentrations were determined via a radioactivity analysis. A detailed description of the method and its validation was published by Schuhmacher et al. (2).

[4] = Protein binding via Transil assay, human plasma; type: in vitro ADME
Description: as §1, §2

[5] = tested on: thromboxane A2 challenged PAH-minipig; experiment: Haemodynamics in the anesthetized thromboxane challenged minipig, inhaled nebulized solution (PAP, BP); type: in vivo, Göttingen Minipigs
Description: E-1 Haemodynamics in the Anesthetized Thromboxane Challenged Minipig
Lung Selectivity and Duration of Action
Healthy Göttingen Minipigs® Ellegaard (Ellegaard, Denmark) of both sexes and having a weight of 2-6 kg were used. The animals were sedated by i.m. administration of about 25 mg/kg ketamine and about 10 mg/kg azaperone. Anaesthesia was initiated by i.v. administration of about 2 mg/kg ketamine and about 0.3 mg/kg midazolam. Maintenance of anaesthesia was by i.v. administration of about 7.5-30 mg/kg/h ketamine and about 1-4 mg/kg/h midazolam (rate of infusion 1-4 ml/kg/h) and about 150 μg/kg/h pancuronium bromide (for example Pancuronium-Actavis). After intubation, the animals were ventilated by the ventilator at a constant respiratory volume (10-12 ml/kg, 35 breaths/min; Avea®, Viasys Healthcare, USA, or Engström Carestation, GE Healthcare, Freiburg, Germany) such that an end-tidal CO2 concentration of about 5% was achieved. Ventilation was performed with room air, enriched with about 40% oxygen (normoxia). For the measurement of the haemodynamic parameters such as pulmonary arterial pressure (PAP), blood pressure (BP) and heart rate (HR), catheters were inserted into the carotid artery to measure the blood pressure, and a Swan-Ganz® catheter was introduced in a flow-directed manner via the jugular vein into the pulmonary artery. The haemodynamic signals were recorded and evaluated by means of pressure transducers (Combitransducer, B. Braun, Melsungen, Germany)/amplifiers and Ponemah® as data acquisition software.
After the instruments have been placed into the animals, continuous infusion of a thromboxane A2 analog was initiated to increase the pulmonary arterial pressure. About 0.3-0.75 μg/kg/min of 9,11-didesoxy-9α,11α-epoxymethanoprostaglandine F2α (U-44069; Sigma, cat. no. D0400, or Cayman Chemical Company, cat. no. 16440), dissolved in physiological saline, were infused to achieve an increase of the mean pulmonary arterial pressure to values of over 25 mmHg. 30 minutes after the start of the infusion, a plateau was reached, and the experiment was started.
The test substances were administered as i.v. infusion or by inhalation. For the preparation of the solution for inhalation, the following procedure was adopted: For an animal having a weight of 4 kg, to prepare the stock solution (300 μg/kg), 1.2 mg of the test compound were weighed out and dissolved in a total volume of 3 ml (1% DMSO, 99% 0.2% strength citric acid solution, 1 n aqueous sodium hydroxide solution to adjust the pH to 8). The solution was then diluted to the concentration employed using 0.2% strength citric acid which had been adjusted to pH 8 beforehand with aqueous sodium hydroxide solution. In each test, 3 ml of the solution of test compound per 4 kg animal were nebulized in the inhalation arm of the respiratory circuit using the Aeroneb® Pro nebulizer system. The mean nebulization time was about 7 min from the start of the nebulization.
With respect to a prediction of the duration of action for human studies comparative example 11 was compared in the PAH minipig model after inhaled application to Ventavis® (=Iloprost, 10 μg/kg nominal dose), which we used as a clinical reference. […] Therefore, the duration of action is more than 6 times longer compared to Ventavis in this preclinical animal model.

sGC = experiment: Efficacy under experimental conditions of oxidative stress (ODQ, L-NAME treatment); type: in vivo
[6] = tested on: chronic ovalbumin asthma mice model; experiment: Chronic ovalbumin asthma mice model; conditions: mouse, in vivo
[7] = tested on: acetylcholine [ACh] rat model; experiment: Acetylcholine [ACh] rat model (bronchodilation); conditions: in vivo
PAH-minipig model = PAH-minipig model on top of PAH standard-of-care; type: in vivo; conditions: inhaled; SoC e.g. bosentan, sildenafil, Ilomedin, riociguat
[8] = PTFE coated jet mill, 25° C., 4.5/4.0 bar, 4.5 g/min
[9] = VA jet mill 50 mm, 25° C., 4.5/4.0 bar, 4.5 g/min
[10] = VA jet mill (low stress conditions), −65° C., 4.5/3.0 bar, 10.6 g/min
[11] = VA jet mill, −65° C., 4.5/4.0 bar, 5.5 g/min
[12] = after micronization, 100 mm spiral jet mill, monohydrate I as starting material

## O=C(O)c1ccc(CCN(CCc2ccccc2OCc2ccc(-c3ccc(C(F)(F)F)cc3)cc2Cl)[C@H]2CCCc3nc(C(=O)O)ccc32)cc1 [example 2, (5S)—{[2-(4-Carboxyphenyl)ethyl][2-(2-{[3-chloro-4′-(trifluoromethyl)biphenyl-4-yl]methoxy}phenyl)-ethyl]amino}-5,6,7,8-tetrahydroquinoline-2-carboxylic acid as Monohydrate II]
[1]; [8]
  PSD X10: X10: 0.7 μm,
  PSD X50: X50: 1.9 μm,
  PSD X90: X90: 5.0 μm
[1]; [9]
  PSD X10: X10: 0.4 μm,
  PSD X50: X50: 1.7 μm,
  PSD X90: X90: 4.2 μm
[1]; [10]
  PSD X10: X10: 0.5 μm,
  PSD X50: X50: 2.3 μm,
  PSD X90: X90: 9.6 μm
[1]; [11]
  PSD X10: X10: 0.4 μm,
  PSD X50: X50: 1.8 μm,
  PSD X90: X90: 4.8 μm
[1]; batch of example 2
  XRPD form after micronization: monohydrate II with partial amorphization
[2]; brown glass closed with paper filter disc, 40° C., 75% relative humidity
  Result (form after storage): monohydrate I
[2]; brown glass snap on closure, 25° C., 60% relative humidity, one, three and six months
  Result (form after storage): monohydrate II
[2]; polyethylene, 25° C., 60% relative humidity
  Result (form after storage): monohydrate I
[2]; polyethylene, 40° C., 75% relative humidity
  Result (form after storage): monohydrate I
[3]
  fraction unbound: 0.00348
[4]; read-out: plasma fu (fraction unbound)
  fraction unbound: 0.000764
[5]; nebulized solution, inhaled
  minimal effective nominal dose (5% reduction in PAP): 3 µg/kg

## O=C(O)c1ccc(CCN(CCc2ccccc2OCc2ccc(-c3ccc(C(F)(F)F)cc3)cc2Cl)[C@H]2CCCc3nc(C(=O)O)ccc32)cc1 [comparative example 11, (5S)-5-{[2-(4-carboxyphenyl)ethyl][2-(2-{[3-chloro-4′-(trifluoromethyl)[biphenyl]-4-yl]methoxy}phenyl)ethyl]amino}-5,6,7,8-tetrahydroquinoline-2-carboxylic acid]
[4]
  free fraction, times lower than comparative example 1: 2 times
[5]; inhaled, all doses (10, 30, 100 μg/kg nominal dose), 240 min observation interval
  duration of dose dependent efficacy (PAP): ≥ 240 min
[5]; nebulized liquid formulations
  time of maximum effect after start inhalation: about 90 min
[5]; preclinical animal model
  duration of action, times longer compared to Ventavis: more than 6 times
sGC
  efficacy under oxidative stress: enhanced
[6]
  effect on airway hyper-responsiveness and inflammation: inhibitory effect on airway hyper-responsiveness and inflammation
[7]
  effect on ventilation: bronchodilatory effect
PAH-minipig model
  effect on elevated PAP on top of PAH standard-of-care: selectively decreased elevated PAP

## O=C(O)c1ccc(CCN(CCc2ccccc2OCc2ccc(-c3ccc(C(F)(F)F)cc3)cc2Cl)[C@H]2CCCc3nc(C(=O)O)ccc32)cc1 [example 4, (5S)—{[2-(4-Carboxyphenyl)ethyl][2-(2-{[3-chloro-4′-(trifluoromethyl)biphenyl-4-yl]methoxy}phenyl)-ethyl]amino}-5,6,7,8-tetrahydroquinoline-2-carboxylic acid as Monohydrate I]
[1]; 100 mm spiral jet mill, pressurized nitrogen
  stability under micronization conditions: stable
[1]; [12]
  PSD X10: X10: 0.7 μm,
  PSD X50: X50: 2.1 μm,
  PSD X90: X90: 6.1 μm
[2]; under the storage conditions of Table 15
  storage stability: stable
